Results published in patent US12590064B2, “Substituted benzamides for inhibiting perk activity” (ELI LILLY AND COMPANY, priority 2017, dated 2026).

What was measured:
[1] = biological target: T1, EIF2AK3 (PERK) catalytic domain (Homo sapiens, UniProt Q9NZJ5); assay: In vitro inhibition of PERK enzyme activity (isolated), TR-FRET kinase assay; format: biochemical; conditions: 1.5 μM ATP, 45 min
T1 construct: EIF2AK3 (PERK) catalytic domain (amino acids 536-1116); purchased Invitrogen, Carlsbad, CA
T1 sequence (Q9NZJ5 536-1116): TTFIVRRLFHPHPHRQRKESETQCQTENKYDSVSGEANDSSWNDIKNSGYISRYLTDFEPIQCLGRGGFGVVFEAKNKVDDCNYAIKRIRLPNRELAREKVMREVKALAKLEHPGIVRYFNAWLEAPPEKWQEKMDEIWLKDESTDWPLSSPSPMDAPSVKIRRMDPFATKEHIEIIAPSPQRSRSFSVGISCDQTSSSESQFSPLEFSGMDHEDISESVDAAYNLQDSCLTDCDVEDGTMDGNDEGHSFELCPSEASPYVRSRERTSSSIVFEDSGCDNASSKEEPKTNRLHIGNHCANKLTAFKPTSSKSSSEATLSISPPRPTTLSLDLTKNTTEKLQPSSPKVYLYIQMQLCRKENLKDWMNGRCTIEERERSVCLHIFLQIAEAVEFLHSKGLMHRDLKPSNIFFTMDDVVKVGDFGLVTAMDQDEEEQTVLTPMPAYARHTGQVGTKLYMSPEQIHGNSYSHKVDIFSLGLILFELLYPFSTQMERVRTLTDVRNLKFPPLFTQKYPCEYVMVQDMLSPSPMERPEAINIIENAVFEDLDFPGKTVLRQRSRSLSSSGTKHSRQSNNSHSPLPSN
Method: (§1) Recombinant human EIF2AK2 (PKR) catalytic domain (amino acids 252-551), EIF2AK3 (PERK) catalytic domain (amino acids 536-1116), GFP-eIF2α substrate, and Terbium-labelled phospho-eIF2a antibody is obtained (Invitrogen, Carlsbad, CA). Express and purify HIS-SUMO-GCN2 catalytic domain (amino acids 584-1019) from E. coli. Perform TR-FRET kinase assays in the absence or presence of inhibitors in a reaction buffer consisting of 50 mM HEPES, pH 7.5, 10 mM MgCl2, 1.0 mM EGTA, and 0.01% Brij-35, and 100-200 nM GFP-eIF2α substrate. […] Add test compound, initiate the reaction by addition of enzyme, and incubate at room temperature for 45 minutes. Stop the reaction by addition of EDTA to a final concentration of 10 mM, add Terbium-labelled phospho-eIF2α antibody at a final concentration of 2 nM, and incubate for 90 minutes. Monitor the resulting fluorescence in an EnVison® Multilabel reader (PerkinElmer, Waltham, MA). Determine TR-FRET ratios and the resulting IC50 values using a 4-parameter nonlinear logistic equation as shown: Y=(A+((B−A)/(1+((C/x)^D)))) where, Y=% specific inhibition, A=Bottom of the curve, B=Top of the curve, C=absolute IC50 (concentration causing 50% inhibition), and D=hill slope.

[2] = biological target: T2, EIF2AK2 (PKR) catalytic domain (Homo sapiens, UniProt P19525); assay: TR-FRET kinase assay, PKR; format: biochemical; conditions: 2.5 μM ATP, 45 min; read-out: Enzyme IC50 PKR
T2 construct: Recombinant human EIF2AK2 (PKR) catalytic domain (amino acids 252-551); purchased Invitrogen, Carlsbad, CA
T2 sequence (P19525 252-551): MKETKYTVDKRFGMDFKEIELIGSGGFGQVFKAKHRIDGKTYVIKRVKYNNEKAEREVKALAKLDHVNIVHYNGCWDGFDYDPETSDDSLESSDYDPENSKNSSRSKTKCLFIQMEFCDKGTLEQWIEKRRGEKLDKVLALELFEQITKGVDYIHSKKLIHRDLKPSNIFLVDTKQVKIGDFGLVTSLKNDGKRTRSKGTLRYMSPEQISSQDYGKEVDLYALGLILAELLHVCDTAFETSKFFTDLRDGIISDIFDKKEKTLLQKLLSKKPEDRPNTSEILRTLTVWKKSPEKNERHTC
Method: as §1

BxPC-3 cells = assay: In vivo inhibition of pancreatic cancer (mouse xenograft model); design: species or system female athymic nude mice
Method: Implant female athymic nude mice (Harlan Laboratories) subcutaneously with 5×10^6 BxPC-3 cells containing matrigel on the right flank and monitor tumor growth with calipers. Initiate compound dosing when tumors reach ˜250 mm^3 and dose mice twice per day by oral gavage (8 animals per group) for 28 days. Formulate compounds in 10% Acacia containing 0.05% anti-foam or 20% Captisol in 25 mM NaPO4 buffer pH […] the compounds of Examples 5 and 9, respectively. Treat control animals with Acacia vehicle alone. Estimate tumor volumes using the formula l×w^2×(π/6), where l is the larger measured diameter and w is the smaller perpendicular diameter. Calculate percent delta T/C using the formula 100×[(T−T0)/(C−C0)] and percent regression using the formula 100×[(T−T0)/T0], where T and C are mean tumor volumes in the treated and control groups, respectively. T0 and C0 are the corresponding baseline mean tumor volumes. Convert percent delta T/C to percent delta tumor growth inhibition (TGI) using the equation, 100−percent delta T/C. For statistical analysis, transform tumor volume data to log10 scale to equalize variance across time and treatment groups. Analyze the log10 volume data with a two-way repeated measures analysis of variance (Spatial Power correlation model) by time and treatment using the MIXED procedures in the SAS software package (Version 9.3). Compare treated groups to the control group at each time point.

[3] = biological target: T3, PERK in GripTite 293 cells expressing GFP-eIF2α (Homo sapiens, UniProt Q9NZJ5); assay: In vitro inhibition of PERK enzyme activity (whole cell), tunicamycin-induced phospho-eIF2α TR-FRET; format: cell-based; conditions: 1 h pre-treatment, Tunicamycin 1 μM 2 h
T3 construct: Add Tunicamycin (1 μM) to induce PERK activity; endogenous in cells; host or cells: GripTite 293 cells expressing GFP-eIF2α
T3 sequence (Q9NZJ5 30-1116): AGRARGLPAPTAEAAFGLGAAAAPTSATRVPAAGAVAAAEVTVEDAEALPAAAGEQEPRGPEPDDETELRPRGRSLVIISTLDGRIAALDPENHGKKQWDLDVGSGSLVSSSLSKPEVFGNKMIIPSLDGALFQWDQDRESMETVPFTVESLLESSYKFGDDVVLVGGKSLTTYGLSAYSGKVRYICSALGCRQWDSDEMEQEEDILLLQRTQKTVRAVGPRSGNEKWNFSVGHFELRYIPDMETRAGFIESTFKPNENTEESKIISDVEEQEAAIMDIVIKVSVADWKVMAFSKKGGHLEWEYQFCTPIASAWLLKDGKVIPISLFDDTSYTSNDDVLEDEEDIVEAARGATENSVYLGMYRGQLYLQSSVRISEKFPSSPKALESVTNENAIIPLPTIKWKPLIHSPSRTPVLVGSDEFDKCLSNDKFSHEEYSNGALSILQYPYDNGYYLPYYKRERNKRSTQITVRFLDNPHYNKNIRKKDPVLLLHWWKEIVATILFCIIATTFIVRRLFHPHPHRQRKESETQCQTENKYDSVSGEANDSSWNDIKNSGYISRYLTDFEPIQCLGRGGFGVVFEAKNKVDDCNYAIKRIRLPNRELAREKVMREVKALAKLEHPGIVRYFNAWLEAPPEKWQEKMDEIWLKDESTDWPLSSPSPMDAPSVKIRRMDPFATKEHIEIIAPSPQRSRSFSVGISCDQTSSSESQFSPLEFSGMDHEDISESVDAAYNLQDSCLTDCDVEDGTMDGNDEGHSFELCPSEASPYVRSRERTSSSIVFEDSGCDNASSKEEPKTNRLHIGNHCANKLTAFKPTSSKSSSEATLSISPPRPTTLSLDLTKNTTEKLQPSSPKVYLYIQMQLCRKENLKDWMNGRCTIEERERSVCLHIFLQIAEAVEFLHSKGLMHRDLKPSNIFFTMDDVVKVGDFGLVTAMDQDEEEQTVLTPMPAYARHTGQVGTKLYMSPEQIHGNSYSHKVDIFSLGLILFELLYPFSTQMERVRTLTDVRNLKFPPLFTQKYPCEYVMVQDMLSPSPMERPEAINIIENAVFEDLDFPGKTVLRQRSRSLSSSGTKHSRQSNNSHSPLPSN
Method: Seed GripTite™ 293 cells (Invitrogen, Carlsbad, CA) expressing GFP-eIF2α at 10,000 cells per well in 384-well plates and allow to attach overnight. Pre-treat cells with test compounds for 1 hour. Add Tunicamycin (1 μM) to induce PERK activity and incubate the plates at 37° C. for 2 hours. Remove the culture media and lyse the cells in buffer consisting of 20 mM Tris-HCl, pH 7.5, 150 mM NaCl, 5 mM EDTA, 1% NP-40, 5 mM NaF, Protease inhibitors (Sigma, St. Louis, MO), Phosphatase inhibitors (Sigma, St. Louis, MO), and 2 nM Terbium-labelled anti-phospho-eIF2 antibody (Invitrogen, Carlsbad, CA). Incubate the cell lysates for 2 hours in the dark at room temperature and monitor fluorescence in an EnVison® Multilabel reader (PerkinElmer, Waltham, MA). Determine TR-FRET ratios and the resulting IC50 values from the fitted inhibition curves using un-induced (100% inhibition) and induced (0% inhibition) wells as controls.

[4] = 30 mg/kg PO BID group, day 21 post-implant (before start of treatment)
[5] = 30 mg/kg PO BID group, day 24 post-implant (before start of treatment)
[6] = 30 mg/kg PO BID group, day 32 post-implant (before start of treatment)
[7] = 30 mg/kg PO BID group, day 35 post-implant (before start of treatment)
[8] = 30 mg/kg PO BID group, day 39 post-implant (before start of treatment)
[9] = 30 mg/kg PO BID group, day 47 post-implant (before start of treatment)
[10] = 30 mg/kg PO BID group, day 52 post-implant (day of randomization and start of treatment)
[11] = 30 mg/kg PO BID, day 60 post-implant
[12] = 30 mg/kg PO BID, day 67 post-implant
[13] = 30 mg/kg PO BID, day 72 post-implant
[14] = 30 mg/kg PO BID, day 74 post-implant
[15] = 30 mg/kg PO BID, day 76 post-implant
[16] = 30 mg/kg PO BID, day 79 post-implant

Row | SMILES | IC50 [1] [µM] | IC50 [2] [µM] | Mean tumor volume (BxPC-3 cells; [4]) [mm^3] | Mean tumor volume (BxPC-3 cells; [5]) [mm^3] | Mean tumor volume (BxPC-3 cells; [6]) [mm^3] | Mean tumor volume (BxPC-3 cells; [7]) [mm^3] | Mean tumor volume (BxPC-3 cells; [8]) [mm^3] | Mean tumor volume (BxPC-3 cells; [9]) [mm^3] | Mean tumor volume (BxPC-3 cells; [10]) [mm^3] | Mean tumor volume (BxPC-3 cells; [11]) [mm^3] | T/C (BxPC-3 cells; [11]) [%] | TGI (Tumor Growth Inhibition) (BxPC-3 cells; [11]) [%] | Mean tumor volume (BxPC-3 cells; [12]) [mm^3] | T/C (BxPC-3 cells; [12]) [%] | TGI (Tumor Growth Inhibition) (BxPC-3 cells; [12]) [%] | Mean tumor volume (BxPC-3 cells; [13]) [mm^3] | T/C (BxPC-3 cells; [13]) [%] | TGI (Tumor Growth Inhibition) (BxPC-3 cells; [13]) [%] | Mean tumor volume (BxPC-3 cells; [14]) [mm^3] | T/C (BxPC-3 cells; [14]) [%] | also measured
1 | Cc1cc(NC(=O)[C@H](O)c2cc(F)cc(F)c2)ccc1-c1cnc(N)c(C(=O)NC(C)C)c1 [Example 1, 2-amino-5-[4-[[(2R)-2-(3,5-difluorophenyl)-2-hydroxy-acetyl]amino]-2-methyl-phenyl]-N-isopropyl-pyridine-3-carboxamide] | 0.0022 ± 0.0012 | > 20 | – | – | – | – | – | – | – | – | – | – | – | – | – | – | – | – | – | – | –
2 | CNC(=O)c1nc(-c2ccc(NC(=O)[C@H](O)c3cc(F)cc(F)c3)cc2C)cnc1N [Example 5, 3-amino-6-[4-[[(2R)-2-(3,5-difluorophenyl)-2-hydroxy-acetyl]amino]-2-methyl-phenyl]-N-methyl-pyrazine-2-carboxamide] | – | > 20 | 123.9 | 132.8 | 143.4 | 174.6 | 183.8 | 213.7 | 252.0 | 311.8 | 71.5 | 28.5 | 387.8 | 55.8 | 44.2 | 435.0 | 52.7 | 47.3 | 487.5 | 50.7 | TGI (Tumor Growth Inhibition) (BxPC-3 cells; [14]): 49.3%; Mean tumor volume (BxPC-3 cells; [15]): 528.8 mm^3; T/C (BxPC-3 cells; [15]): 54.5%; TGI (Tumor Growth Inhibition) (BxPC-3 cells; [15]): 45.5%; Mean tumor volume (BxPC-3 cells; [16]): 593.2 mm^3; T/C (BxPC-3 cells; [16]): 47.7%; TGI (Tumor Growth Inhibition) (BxPC-3 cells; [16]): 52.3%
3 | Cc1cc(NC(=O)[C@H](O)c2cccc(F)c2)ccc1-c1cn(C)c2ncnc(N)c12 [Example 9, (2R)—N-[4-(4-amino-7-methyl-pyrrolo[2,3-d]pyrimidin-5-yl)-3-methyl-phenyl]-2-(3-fluorophenyl)-2-hydroxy-acetamide] | 0.0024 ± 0.001 | – | 111.9 | 134.3 | 153.7 | 162.6 | 167.1 | 196.4 | 244.2 | 284.8 | 40.8 | 59.2 | 317.2 | 27.4 | 72.6 | 380.5 | 37.3 | 62.7 | 418.3 | 36.0 | IC50 [3]: 0.028 ± 0.011 µM; TGI (Tumor Growth Inhibition) (BxPC-3 cells; [14]): 64.0%; Mean tumor volume (BxPC-3 cells; [15]): 480.4 mm^3; T/C (BxPC-3 cells; [15]): 45.1%; TGI (Tumor Growth Inhibition) (BxPC-3 cells; [15]): 54.9%; Mean tumor volume (BxPC-3 cells; [16]): 541.6 mm^3; T/C (BxPC-3 cells; [16]): 40.5%; TGI (Tumor Growth Inhibition) (BxPC-3 cells; [16]): 59.5%
